The values below are quoted from earlier work in US11712576B2, “Method and apparatus for cancer treatment” (Minnesota Medical Physics LLC, priority 2018, dated 2023).

In data set [1] the test system is BBB.
Data set [2] relates to human glioblastoma U87MG cancer cells. The note with it: agonist 100 nM combined with EFS (Helmholtz coils).
In data set [3] the test system is cancer cells.
Data set [4] has as its system melanoma, colon, prostate carcinoma, lymphoma, pancreatic and hepatocellular carcinomas.
Data set [5] has as its system tumor. The note with it: concentration of 100 μM.
Data set [6] has as its target adenosine receptor A2aAR (Homo sapiens, UniProt P29274).
Data set [7] relates to lung cancer cells Lu-65. As to conditions: highest concentrations in mM range (0.01-10 mM tested), 48 hours.
The conditions of data set [8]: oral doses of 4 mg twice a day over a week period.

Chain of adenosine receptor A2aAR (P29274 whole entry): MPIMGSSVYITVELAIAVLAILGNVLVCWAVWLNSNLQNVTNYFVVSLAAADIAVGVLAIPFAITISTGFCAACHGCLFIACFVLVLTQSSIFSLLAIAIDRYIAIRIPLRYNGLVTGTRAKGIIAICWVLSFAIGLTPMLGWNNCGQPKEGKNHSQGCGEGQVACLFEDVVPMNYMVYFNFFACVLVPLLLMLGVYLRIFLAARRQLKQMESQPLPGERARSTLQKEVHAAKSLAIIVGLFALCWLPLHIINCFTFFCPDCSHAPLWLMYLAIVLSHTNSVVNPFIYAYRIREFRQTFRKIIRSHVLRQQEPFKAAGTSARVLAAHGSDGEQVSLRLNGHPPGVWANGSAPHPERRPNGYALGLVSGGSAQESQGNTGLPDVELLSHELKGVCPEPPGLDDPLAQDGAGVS

For the compound `CNC(=O)c1cnn(-c2nc(N)c3ncn([C@@H]4O[C@H](CO)[C@@H](O)[C@H]4O)c3n2)c1` [Lexiscan], the side effects entry in data set [1] (doses used for cardiac perfusion) is “strong, sometimes life-threatening side effects”. In data set [1] (in vivo), the “permeation of the BBB” value is “substantial permeation of the BBB”.

`CNC(=O)[C@H]1O[C@@H](n2cnc3c(NCc4cccc(I)c4)nc(Cl)nc32)[C@H](O)[C@@H]1O` [CI-IB-MECA]: the “increase in apoptosis attributed to EFS over agonist alone” value in data set [2] was 25-30%. The “apoptosis of cancer cells (normal cells refractory)” value in data set [3] is “induce apoptosis of cancer cells”. Further, the “effect on metastases, migrating mobility and proliferation of cancer cells” value in data set [4] was “reduction of metastases, migrating mobility of cancer cells and inhibition of proliferation”. Further, in data set [5], the “effect on tumor growth” value is given as “only a slowdown of tumor growth”.

As for `Nc1nc2c(cnn2CCc2ccccc2)c2nc(-c3ccco3)nn12` [SCH-58261], in data set [6], the “selectivity for A2aAR over the other adenosine receptors” value is “more than 50 fold”.

As to `CNC(=O)[C@H]1O[C@@H](n2cnc3c(NCc4cccc(I)c4)ncnc32)[C@H](O)[C@@H]1O` [IB-MECA], the “effect on metastases, migrating mobility and proliferation of cancer cells” value in data set [4] is “reduction of metastases, migrating mobility of cancer cells and inhibition of proliferation”.

Regarding `Nc1ncnc2c1ncn2[C@@H]1O[C@H](CO)[C@@H](O)[C@H]1O` [adenosine], the cancer cells destroyed in data set [7] is listed as 100%.

As to `CNC(=O)[C@H]1O[C@@H](n2cnc3c(NCc4cccc(I)c4)ncnc32)[C@H](O)[C@@H]1O` [CF101], the tolerability entry in data set [8] was “well tolerated”. Besides, the “apoptosis of cancer cells (normal cells refractory)” value in data set [3] is reported as “induce apoptosis of cancer cells”.
